Data published in publication PMC8767159, “Multiparameter Optimization of Trypanocidal Cruzain Inhibitors With In Vivo Activity and Favorable Pharmacokinetics” (Frontiers in Pharmacology, 2022).
Like-named read-outs stand apart in the source and are kept apart here.

Legend:
[1] = In vitro metabolic stability in human liver microsomes; format: in vitro ADME; settings: human, liver microsomes
How it was run: (§1)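 Compounds incubated at 37°C with mouse or human liver microsomes (0.25 mg/ml) in potassium phosphate buffer with NADPH; samples quenched in ACN/MeOH at 0, 5, 10, 15, 20 and 30 min. Parent remaining by LC-MS/MS relative to 0 min; T½ = ln(2)/k, CLint = k*1000/0.25 (μL/min/mg).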

[2] = In vitro metabolic stability in mouse liver microsomes; format: in vitro ADME; settings: mouse, liver microsomes
How it was run: as §1

[3] = Cytotoxicity MTS assay in HFF-1 fibroblasts; format: cell-based; settings: human HFF-1 fibroblasts
Procedure: The synthesized compounds were evaluated for their cytotoxicity against HFF-1 cells using the MTS assay (Promega, Madison, WI) ([Barltrop et al., 1991]) as previously described ([Ferreira et al., 2019]). HFF-1 fibroblasts were plated at 2 × 10^3/well in 96-well culture plates in RPMI 1640 without phenol red enriched with 10% FCS and incubated overnight at 37°C and 5% CO2. Next, 7 concentrations (0.1–100 µM) of the compounds were added in 3-fold serial dilutions, each concentration in triplicate, and the plates were incubated for 72 h at 37°C and 5% CO2. Next, 20 µl of MTS was added to each well, and the plates were incubated for an additional 4 h at 37°C and 5% CO2. The absorbance was measured at 490 nm using a spectrophotometer, and the data were transferred to SigmaPlot 10.0 (Systat Software Inc., Erkrath, Germany) to determine the IC50 values. Doxorubicin (Sigma–Aldrich) was used as a positive control, and untreated wells (100% growth) were used as negative controls in all plates. All compounds were tested in two independent assays.

[4] = In vivo pharmacokinetics in male CD1 mice; design: species or system mouse; settings: for CLpu: plasma clearance corrected for the fraction unbound; for bioavailability / C0 / AUC / half-life / Vd / Tmax / Cmax: plasma; for bioavailability: oral bioavailability; for clearance: plasma clearance, read-out: CLp (L/h/kg) IV (converted)
Procedure: The in vivo pharmacokinetic profiles of the compounds were determined using male CD1 mice weighing […] ([Davies and Morris, 1993]; [Liu and Jia, 2007]). The compounds were administered in a single dose orally (0.5 mg/kg) and intravenously (0.5 mg/kg). Stock solutions of the compounds in DMSO were diluted in Tween 80, PEG-400, and D5W (5% dextrose in water) at a ratio of 2:5:20:73 (v/v). The injection volume was 10 ml/kg. The remaining plasma concentration was monitored over time by LC-MS/MS by collecting blood samples (40 μl) at 10, 25, and 50 min and 1, 3, 6, 9, 12, and 24 h after administration of the compound.
For the biotransformation experiments and analysis of metabolites in microsomes, an Ultra-High-Pressure Liquid Chromatography instrument (UHPLC, Thermo Accela, Waltham, MA) ([Spaggiari et al., 2014]) connected to an automatic sample injector and a 1250 series pump was used. The UHPLC system was connected to a Thermo Fisher (Waltham, MA) LTQ Orbitrap mass spectrometer. For all other analyses, an AB Sciex Triple Quad 5500 coupled to a UHPLC equipped with a UV 1290 diode detector (Agilent Technologies, Santa Clara, CA) and a CTC PAL self-collecting system (LEAP Technologies, Carrboro, NC) was used. Q1 MS positive ion mode (300–500 Da) was used to detect the ions of the parent compounds. The UV detector was operated in spectral mode (250–280 nm). A Hypersil Gold C18 (2.1 mm × 100 mm, 1.9 µm, Thermo Fisher) HPLC column was used. The mobile phases were solvent A (0.1% formic acid in water) and solvent B (0.1% formic acid in ACN). The flow was adjusted to 0.55 ml/min, and the injection volume was adjusted to […]. The gradient started with 1% solvent B for 0.4 min, reached 40% (solvent B) in 2.3 min and 95% (solvent B) in 0.67 min, was maintained for 0.5 min, and returned to the initial condition of 1%. This condition was maintained for 1 min before injection of the next sample. The peak area ratio (peak area of the test compounds/peak area of the control compounds) was converted to the percentage of remaining compound, with the 0 min time point ratio set to 100%. T½ and CLint were calculated from the percentage of remaining compound versus the incubation time. From the resulting function, the slope (k) was determined. The equations T1/2 (min) = ln(2)/k and CLint in vitro (μL/min/mg) = k*1000/0.25 were used to determine T½ and CLint.

[5] = Table 5, CLint/fu, read-out: CLint_u (L/h/kg) human (converted)
[6] = Table 5, read-out: CLint (L/h/kg) human (converted)
[7] = Table 5, CLint/fu, read-out: CLint_u (L/h/kg) mouse (converted)
[8] = Table 5, read-out: CLint (L/h/kg) mouse (converted)
[9] = mouse, 0.5 mg/kg, Table 6, male CD1 mice
[10] = mouse, Table 6, IV 0.5 mg/kg, male CD1 mice
[11] = mouse, Table 6, IV 0.5 mg/kg, male CD1 mice, read-out: AUC (ng*h/ml) IV
[12] = mouse, Table 6, IV 0.5 mg/kg, male CD1 mice, read-out: T1/2 (h) IV (converted)
[13] = mouse, Table 6, IV 0.5 mg/kg, male CD1 mice, read-out: V SS (L/kg) IV
[14] = mouse, Table 6, PO 0.5 mg/kg, male CD1 mice
[15] = mouse, Table 6, PO 0.5 mg/kg, male CD1 mice, read-out: AUC (ng*h/ml) PO
[16] = Table S5, CLint/fu, read-out: CLint_u (L/h/kg) Human (converted)
[17] = Table S5, read-out: CLint (L/h/kg) Human (converted)
[18] = Table S5, CLint/fu, read-out: CLint_u (L/h/kg) Mouse (converted)
[19] = Table S5, read-out: CLint (L/h/kg) Mouse (converted)
[20] = Table 6, PO 0.5 mg/kg, male CD1 mice
[21] = male, CD1, mouse, 0.5 mg/kg, Table S6, IV, mice
[22] = male, CD1, mouse, 0.5 mg/kg, Table S6, IV, mice, read-out: AUC (ng*h/mL) IV
[23] = male, CD1, mouse, 0.5 mg/kg, Table S6, IV, mice, read-out: T1/2(h) IV (converted)
[24] = male, CD1, mouse, 0.5 mg/kg, Table S6, IV, mice, read-out: VSS (L/kg) IV
[25] = male, CD1, mouse, 0.5 mg/kg, Table S6, PO, mice
[26] = male, CD1, mouse, 0.5 mg/kg, Table S6, PO, mice, read-out: AUC (ng*h/mL) PO
[27] = male, CD1, mouse, 0.5 mg/kg, Table S6, PO, mice, read-out: T1/2 (h) PO (converted)
[28] = male, CD1, mouse, 0.5 mg/kg, Table S6, mice

SMILES	CLint scaled at 5 µM [1, 5] [L/h/kg]	CLint scaled at 5 µM [1, 6] [L/h/kg]	CLint scaled at 5 µM [2, 7] [L/h/kg]	CLint scaled at 5 µM [2, 8] [L/h/kg]	IC50 at 72 h [3] [µM]	CLpu ([4]; Table 6, IV) [mL/min/kg]	CLint scaled at 5 µM [1, 16] [L/h/kg]	CLint scaled at 5 µM [1, 17] [L/h/kg]	CLint scaled at 5 µM [2, 18] [L/h/kg]	CLint scaled at 5 µM [2, 19] [L/h/kg]	CLpu ([4]; Table S6) [mL/min/kg]	clearance [4, 21] [L/h/kg]	C0 [4, 21] [ng/mL]	AUC [4, 22] [ng·h/mL]	half-life [4, 23] [h]	Vd [4, 24] [L/kg]	Cmax [4, 25] [ng/mL]	Tmax [4, 25] [min]	AUC [4, 26] [ng·h/mL]	half-life [4, 27] [h]	further results
O=C(COc1ccccc1[N+](=O)[O-])NCCc1nc2ccccc2[nH]1 [Compound 32]	39.2	25.5	808	526	> 100	2623															bioavailability [4, 9]: 1.9%; C0 [4, 10]: 220 ng/mL; AUC [4, 11]: 53 ng·h/mL; half-life [4, 12]: 0.2 h; Vd [4, 13]: 2.5 L/kg; Tmax [4, 14]: 18 min; AUC [4, 15]: 1 ng·h/mL; clearance [4, 10]: 5.9 L/h/kg
O=C(Cn1ccnc1[N+](=O)[O-])NCc1ccccc1 [BZ, benznidazole, reference compound]	1.5	1.5	4.4	4.4	> 100	16.7	1.5	1.5	4.43	4.43	16.7	1	961	1020	0.8	1.1	404	24	1040	1.5	AUC (ng*h/ml) PO [4, 20]: 1.040 ng·h/mL; T1/2 (h) PO [4, 20]: 1.5 h; bioavailability [4, 28]: 90%
O=C(COc1ccccc1)NCCc1nc2ccccc2[nH]1 [Compound 1]					> 100		< 1.5	< 1.5	72.1	72.1	289.8	4.01	988	250	0.21	1.02	21	19.2	22.5	0.73	bioavailability [4, 28]: 9%
NC(=O)Cn1c(CCNC(=O)COc2ccccc2)nc2ccccc21 [Compound 28]					> 100		< 1.53	< 1.5	5.43	5.34	66.3	0.73	1930	1420	0.52	0.43	275	30.6	499	0.82	bioavailability [4, 28]: 35%
CC(=O)Nc1ccc(OCC(=O)NCCc2nc3ccccc3[nH]2)cc1 [Compound 2]					> 100		< 1.5	< 1.5	< 4.43	< 4.43	69.3	2.03	1040	506	0.63	1.03	54	49.8	125	1.21	bioavailability [4, 28]: 25%
O=C(COc1ccc(Br)cc1)NCCc1nc2ccccc2[nH]1 [Compound 33]	12.5	10.4	193	161	> 100	1010															bioavailability [4, 9]: 35.2%; C0 [4, 10]: 658 ng/mL; AUC [4, 11]: 160 ng·h/mL; half-life [4, 12]: 0.2 h; Vd [4, 13]: 0.6 L/kg; Cmax [4, 14]: 71.7 ng/mL; Tmax [4, 14]: 18 min; AUC [4, 15]: 56.5 ng·h/mL; half-life ([4]; mouse, Table 6, PO 0.5 mg/kg, male CD1 mice, read-out: T1/2 (h) PO (converted)): 0.4 h; clearance [4, 10]: 9.5 L/h/kg
Cc1ccccc1OCC(=O)NCCc1nc2ccccc2[nH]1 [Compound 17]	31.2	23.9	392	300	> 100	1738															bioavailability [4, 9]: 0%; C0 [4, 10]: 153 ng/mL; AUC [4, 11]: 83 ng·h/mL; half-life [4, 12]: 0.5 h; Vd [4, 13]: 4.4 L/kg; clearance [4, 10]: 6.3 L/h/kg
